Test results as given in PMC7702303, “Biochemical and transcript level differences between the three human phosphofructokinases show optimisation of each isoform for specific metabolic niches” (Biochemical Journal, 2020).
Values joined by “and” are separate entries in the source; they are usually repeats but may differ in a detail not shown here. Identical values can stand only once. Like-named read-outs stand apart in the source and are kept apart here. One block for each compound: values may come before it.

What was measured:
[1] = system: PFK; set-up: key to Effect (activator or inhibitor of PFK): “+” indicates activator; “-“ indicates inhibitor; details: cited from earlier work; for IC50 or AC50 (activator): asterisk not explained, ref Moreno-Sanchez et al., 2012
[2] = molecular target: T1, recombinant human PFK-M (Homo sapiens, UniProt P08237); assay: ALDO-TIM-G3PDH enzyme-linked kinetic assay, PFK-M; format: biochemical
T1 construct: made in house; host or cells: PFK-deficient Saccharomyces cerevisiae
T1 sequence (P08237 1-780): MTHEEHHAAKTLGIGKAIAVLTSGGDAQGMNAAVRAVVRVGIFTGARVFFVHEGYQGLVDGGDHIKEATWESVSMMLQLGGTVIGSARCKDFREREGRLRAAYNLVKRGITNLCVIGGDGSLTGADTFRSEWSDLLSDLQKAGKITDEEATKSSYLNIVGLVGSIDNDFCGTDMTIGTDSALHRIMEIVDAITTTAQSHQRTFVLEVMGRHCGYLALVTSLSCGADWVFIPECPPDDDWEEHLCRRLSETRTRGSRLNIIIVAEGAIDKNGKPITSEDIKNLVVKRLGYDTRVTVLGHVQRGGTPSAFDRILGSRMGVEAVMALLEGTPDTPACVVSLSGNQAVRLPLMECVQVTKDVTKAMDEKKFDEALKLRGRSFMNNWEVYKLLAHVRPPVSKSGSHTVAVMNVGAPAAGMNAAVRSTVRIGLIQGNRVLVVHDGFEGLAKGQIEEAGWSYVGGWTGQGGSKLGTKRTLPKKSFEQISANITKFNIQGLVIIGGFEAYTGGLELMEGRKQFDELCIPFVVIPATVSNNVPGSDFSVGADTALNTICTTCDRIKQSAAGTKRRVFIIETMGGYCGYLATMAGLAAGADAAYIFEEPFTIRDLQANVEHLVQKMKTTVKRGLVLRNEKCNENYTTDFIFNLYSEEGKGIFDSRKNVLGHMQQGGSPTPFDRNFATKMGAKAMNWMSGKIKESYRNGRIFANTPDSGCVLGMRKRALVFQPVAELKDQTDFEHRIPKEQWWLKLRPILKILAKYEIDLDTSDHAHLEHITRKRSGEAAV
Experimental: (§1) Recombinant human PFKs were expressed in PFK-deficient Saccharomyces cerevisiae and purified using the methods described previously, adapting earlier materials and protocols. Production of PFK intended for use in ATP titration experiments used 1 mM F6P as a tetramer stabilising agent in protein purification and storage buffers. Production of PFK intended for use in F6P titration experiments used 1 mM ATP as a tetramer stabilising agent in protein purification and storage buffers. Experimental details on the purification and characterisation procedures including figures showing SDS–PAGE gels of the highly pure PFKs used in the kinetic experiments described in this work have been recently published.
(§2) Assay buffer consisted of 50 mM TEA, 100 mM KCl, 10 mM MgCl2, 1 mM Tris(2-carboxyethyl)phosphine hydrochloride (TCEP), 10% glycerol, pH 7.4. Assay mix consisted of 5 units/ml glycerol-3-phosphate dehydrogenase (G3PDH, Sigma–Aldrich G6880), 2.5 units/ml aldolase (Sigma–Aldrich A2714), 25 units/ml triosephosphate isomerase (TIM, Sigma–Aldrich T6258), and 1.25 mM NADH. ATP and F6P were obtained from Sigma–Aldrich (A2383 and F3627, respectively). For ATP titrations, 38 µl of buffer or ligand were added to a clear non-binding 96-well plate. 40 µl of assay mix containing 10 mM F6P (final concentration 4 mM) was added and the plate was incubated at 25°C for 5 min. An amount of 2 µl of PFK isoforms were added to each well from stock concentrations of 150 µg/ml and the reaction was immediately started with 20 µl of ATP at varying concentrations. For F6P titrations, 30 µl of buffer or ligand was added to a clear non-binding 96-well plate. An amount of 40 µl of assay mix containing 1.25 mM ATP (final concentration 0.5 mM) was added and the plate was incubated at 25°C for 5 min. An amount of 5 µl of PFK isoforms were added to each well from stock concentrations of 200 µg/ml and the reaction was immediately started with 20 µl F6P at varying concentrations. All ligands and substrates (including ATP) were used at pH 7.4. All metabolites were obtained from Sigma–Aldrich unless otherwise stated. […] A SpectraMax M5 Multi-Mode Microplate Reader was used to measure A340nm at 13 s intervals for 10 min. All experiments were performed in triplicate unless otherwise stated.
(§3) Time-dependent absorbance change was converted into rate of NADH oxidation (µM s^−1) or specific activity (µmol min^−1 mg protein^−1) using the Beer-Lambert law (molar extinction coefficient of NADH 6.22 mM^−1 cm^−1). The initial rate of reaction was used to avoid accumulation of ADP, which activates PFK, interfering with the determination of kinetic properties. Non-linear regression analysis was performed on substrate titration data using GraphPad Prism 7, with curves fitted using allosteric sigmoidal models, enabling determination of steady-state kinetic values.

[3] = molecular target: T2, recombinant human PFK-P (Homo sapiens, UniProt Q01813); assay: ALDO-TIM-G3PDH enzyme-linked kinetic assay, PFK-P; format: biochemical
T2 construct: made in house; host or cells: PFK-deficient Saccharomyces cerevisiae
T2 sequence (Q01813 1-784): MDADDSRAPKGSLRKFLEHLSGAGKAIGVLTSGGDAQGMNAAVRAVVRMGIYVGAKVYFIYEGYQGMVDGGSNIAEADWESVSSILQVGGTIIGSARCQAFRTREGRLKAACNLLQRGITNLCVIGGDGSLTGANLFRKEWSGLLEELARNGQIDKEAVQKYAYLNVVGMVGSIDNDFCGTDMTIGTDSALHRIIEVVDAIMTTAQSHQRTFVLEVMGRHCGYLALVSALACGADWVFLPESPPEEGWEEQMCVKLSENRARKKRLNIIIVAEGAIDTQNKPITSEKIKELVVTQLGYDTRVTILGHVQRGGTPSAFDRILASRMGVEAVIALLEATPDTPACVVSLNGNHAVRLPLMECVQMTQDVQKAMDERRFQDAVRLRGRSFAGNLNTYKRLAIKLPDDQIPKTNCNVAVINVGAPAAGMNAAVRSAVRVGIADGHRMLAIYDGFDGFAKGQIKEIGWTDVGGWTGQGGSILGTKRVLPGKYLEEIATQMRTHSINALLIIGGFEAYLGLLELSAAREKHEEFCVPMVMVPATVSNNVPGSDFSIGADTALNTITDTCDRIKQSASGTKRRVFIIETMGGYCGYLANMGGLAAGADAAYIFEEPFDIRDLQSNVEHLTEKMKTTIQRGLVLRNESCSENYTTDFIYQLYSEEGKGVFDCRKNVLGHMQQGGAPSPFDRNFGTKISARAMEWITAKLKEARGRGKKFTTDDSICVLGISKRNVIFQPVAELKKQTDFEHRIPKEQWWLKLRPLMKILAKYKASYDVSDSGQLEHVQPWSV
Experimental: as §1, §2, §3

[4] = modulator 1200 µM, ATP 0.5mM, N=3, mean (SD)
[5] = modulator 1200 µM, F6P 4mM, N=3, mean (SD)
[6] = F6P titration, ATP 0.5 mM, n = 6, mean (SD)
[7] = GTP titration, F6P 4 mM, n = 3, mean (SD)
[8] = Hill value, GTP titration, F6P 4 mM, n = 3, mean (SD)

- decrease in K0.5^F6P by AMP ([2]; F6P titration): near two-fold decrease
- change in kcat^ATP/K0.5^ATP compared with control PFK without modulator ([2]; modulator 1200 µM): −12%
- change in kcat^F6P/K0.5^F6P compared with control PFK without modulator ([2]; modulator 1200 µM): −25%
- decrease in K0.5^F6P by AMP ([3]; F6P titration): two-fold decrease
- change in kcat^ATP/K0.5^ATP compared with control PFK without modulator ([3]; modulator 1200 µM): +220%
- change in kcat^F6P/K0.5^F6P compared with control PFK without modulator ([3]; modulator 1200 µM): +162%
- K0.5F6P + modulator [3, 4]: 607.0 (31.0) M
- VmaxF6P + modulator [3, 4]: 2.13 (0.06) moles/min/mg
- K0.5ATP + modulator [3, 5]: 94.4 (10.8) M
- VmaxATP + modulator [3, 5]: 28.38 (1.07) moles/min/mg
SMILES: Nc1ncnc2c1ncn2[C@@H]1O[C@H](COP(=O)(O)O)[C@@H](O)[C@H]1O [AMP]
- IC50 or AC50 (activator) ([1]; first of three values marked *): 860 µM
- Effect (activator or inhibitor of PFK) ([1]; published literature, ref selected references in Supplementary Table 1): +
- IC50 or AC50 (activator) ([1]; second of three values marked *): 5800 µM
- IC50 or AC50 (activator) ([1]; third of three values marked *): 1550 µM

- K0.5^F6P [2, 6]: 147 µM and 147.1 (13.6) µM
- K0.5^F6P [3, 6]: 1333 µM and 1333 (312) µM
- K0.5F6P ([3]; control without modulator, run alongside modulator experiments, ATP 0.5mM, N=3, mean (SD)): 1238 (179) M and 1607 (90) M
SMILES: O=C(CO)[C@@H](O)[C@H](O)[C@H](O)COP(=O)(O)O [F6P, fructose 6-phosphate]

- K0.5^GTP [2, 7]: 97 µM and 96.7 (8.0) µM
- Vmax^GTP [2, 7]: 17.82 (0.44) µmoles/min.mg
- kcat^GTP [2, 7]: 26.0 (0.6) s^−1
- h (GTP) [2, 8]: 1.19 (0.12)
- K0.5^GTP [3, 7]: 131 µM and 131 (20.9) µM
- Vmax^GTP [3, 7]: 12.30 (0.62) µmoles/min.mg
- kcat^GTP [3, 7]: 17.9 (0.9) s^−1
- h (GTP) [3, 8]: 1.12 (0.18)
SMILES: Nc1nc2c(ncn2[C@@H]2O[C@H](COP(=O)(O)OP(=O)(O)OP(=O)(O)O)[C@@H](O)[C@H]2O)c(=O)[nH]1 [GTP]
- kcat^GTP/K0.5^GTP [2, 7]: 0.27 s^−1 µM^−1 and 0.27 (0.08) s^−1 µM^−1
- kcat^GTP/K0.5^GTP [3, 7]: 0.14 s^−1 µM^−1 and 0.14 (0.04) s^−1 µM^−1
